Assay results published in patent US11530244B2, “Cyclic polypeptides for PCSK9 inhibition” (priority 2018, dated 2022).
Where a name gives a salt, the structure may show the parent alone. Starred links: 1 amine or outer side, 2 acyl side, 3 side chain; linkers in the order of their positions; H or OH if unused. Positions of bridges follow the written chain, without caps; N, C: chain ends. Non-standard residues stand in square brackets, D forms with d. Residues, ends and D or L forms follow the SMILES beside them. *: point of attachment. X29 = O=C([C@H](Cc1ccc(CC=[*:3])cc1)N[*:1])[*:2]; Trp(5-F) = N[C@@H](Cc1c[nH]c2ccc(F)cc12)C(=O)O; Phe(4-CH2NH2) = NCc1ccc(C[C@H](N)C(=O)O)cc1; X3 = O=C(CCSCc1cc(F)cc(CSCCN[*:1])c1)[*:2]; Heptanedioyl = O=C(CCCCCC(=O)[*:2])[*:1]; Pro(cis-4-F) = O=C(O)[C@@H]1C[C@H](F)CN1; Hag = O=C([C@H](CCC=[*:3])N[*:1])[*:2]; AEF = NCCOc1ccc(C[C@H](N)C(=O)O)cc1; Adipoyl = O=C(CCCCC(=O)[*:2])[*:1]; Glutaryl = O=C(CCCC(=O)[*:2])[*:1]; αMeP = C[C@@]1(C(=O)O)CCCN1; Dap = NC[C@H](N)C(=O)O; Tfa = O=C(C(F)(F)F)*; AEA = NCCOCC(=O)O

Experiments:
PCSK9 [1] = biological target: T1, PCSK9 (Homo sapiens (Human), UniProt Q8NBP7); assay: PCSK9 Alexa FRET Plus assay (displacement of AlexaFluor647 tagged cyclic peptide Reagent B); format: binding; conditions: Alexa FRET Plus, 0.5 nM PCSK9, 960 nM AF cyclic peptide Reagent B; read-out: IC50
Protocol: A solution containing 1 nM biotinylated PCSK9+2.5 nM Lance Streptavidin Europium (Strep-Eu) was made in 50 mM HEPES pH 7.4, 0.15 M NaCl, 5 mM CaCl2), 0.01% BSA, and 0.01% Surfactant P20. A separate solution containing 1920 nM of the AlexaFluor tagged cyclic peptide was made in the same buffer system. An Echo was used to transfer 0.075 ul of compound plus 0.675 ul of DMSO to each well of an assay plate followed by the addition of 15 ul of PCSK9+Stept-Eu and 15 ul of AF peptide. The final assay volume was 30.750 ul containing 0.5 nM PCSK9, 1.25 nM Strep-Eu, and 960 nM AF cyclic peptide. The reaction was incubated at room temperature for at least two hours prior to fluorescence measurements using an Envision Multilabel Reader. IC50 values were determined by fitting data to a sigmoidal dose-response curve using nonlinear regression. Ki was then calculated from the IC50 and the KD of AF cyclic peptide. Counts (B-counts) of the europium-labeled PCSK9 were followed to observe if compounds were adversely affecting PCSK9. A fall off of the B-counts likely indicated a false positive of inhibition. Data from this procedure was reported as “P=‘numerical value’ (nanomolar)”

PCSK9 [2] = biological target: T1, PCSK9; assay: PCSK9 Alexa FRET Standard assay (displacement of AlexaFluor647 tagged cyclic peptide Reagent A); format: binding; conditions: PCSK9 Alexa FRET Standard assay, 0.5 nM PCSK9, 20 nM AF cyclic peptide Reagent A; read-out: IC50
Outline: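 TR-FRET displacement: 0.5 nM biotinylated PCSK9 with 1.25 nM Strep-Eu and 20 nM AlexaFluor-tagged cyclic peptide (final) in 50 mM HEPES pH 7.4, 0.15 M NaCl, 5 mM CaCl2, 0.01% BSA, 0.01% P20, ≥2 h at room temperature. IC50 from sigmoidal fit, converted to Ki via peptide KD; falling Eu counts flagged false positives.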

T1 sequence (Q8NBP7 153-692): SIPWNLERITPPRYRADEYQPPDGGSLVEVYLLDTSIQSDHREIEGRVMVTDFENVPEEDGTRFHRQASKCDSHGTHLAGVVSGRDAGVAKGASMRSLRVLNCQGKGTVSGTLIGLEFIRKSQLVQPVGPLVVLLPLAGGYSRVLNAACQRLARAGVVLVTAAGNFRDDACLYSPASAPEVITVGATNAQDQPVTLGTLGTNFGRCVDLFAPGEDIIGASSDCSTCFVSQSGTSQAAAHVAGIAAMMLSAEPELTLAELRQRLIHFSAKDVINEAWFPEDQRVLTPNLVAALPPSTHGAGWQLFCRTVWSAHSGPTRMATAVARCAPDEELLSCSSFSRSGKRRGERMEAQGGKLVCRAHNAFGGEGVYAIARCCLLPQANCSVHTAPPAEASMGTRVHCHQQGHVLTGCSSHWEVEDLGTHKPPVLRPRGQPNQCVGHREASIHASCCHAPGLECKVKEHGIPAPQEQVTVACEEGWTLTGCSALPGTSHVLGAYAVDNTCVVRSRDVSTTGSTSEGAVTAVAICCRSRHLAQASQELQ

Compound	IC50 (PCSK9 [1]) [nM]	IC50 (PCSK9 [2]) [nM]
COc1ccc(C[C@@H]2NC(=O)[C@H]([C@@H](C)O)NC(=O)[C@@H]3C[C@H](F)CN3C(=O)[C@H](Cc3c[nH]c4ccc(F)cc34)NC(=O)[C@H](Cc3c[nH]c4ccc(F)cc34)NC(=O)[C@@H](C)NC(=O)[C@H](CCCCN)NC(=O)[C@@H](NC(=O)C(F)(F)F)CC(=O)NCCOc3ccc(cc3)C[C@@H](C(N)=O)NC(=O)[C@]3(C)CCCN3C2=O)cc1 [Compound 124] (Tfa-DK[dA][Trp(5-F)][Trp(5-F)][Pro(cis-4-F)]TY(Me)[αMeP][AEF]-NH2; lactam 1-10)	0.1 to 100	0.11 to 100
C[C@@]12CCCN1C(=O)[C@H](Cc1ccc(O)cc1)NC(=O)CN1C(=O)[C@H](COc3ccccc31)NC(=O)[C@H](Cc1c[nH]c3ccc(F)cc13)NC(=O)[C@H](Cc1c[nH]c3ccc(F)cc13)NC(=O)CNC(=O)[C@H](CCCCN)NC(=O)CCSCc1cccc(c1)CSC[C@@H](C(N)=O)NC2=O [Compound 126]	0.1 to 100	0.11 to 100
C[C@@]12CCCN1C(=O)[C@H](Cc1ccc(O)cc1)NC(=O)CN1C(=O)[C@@H](N=C(C3CCCCC3)c3ccccc31)NC(=O)[C@H](Cc1c[nH]c3ccc(F)cc13)NC(=O)[C@H](Cc1c[nH]c3ccc(F)cc13)NC(=O)CNC(=O)[C@H](CCCCN)NC(=O)CCSCc1cccc(c1)CSC[C@@H](C(N)=O)NC2=O [Compound 129]	500 to 5000	0.11 to 100
CCCCCCCCCCCCCCCC(=O)N[C@@H](CCC(=O)NCCOCCOCC(=O)NCCOCCOCC(=O)NCCCC[C@H](NC(C)=O)C(=O)NCCOCCOCC(=O)N[C@@H]1CSCc2cccc(c2)CSC[C@@H](C(N)=O)NC(=O)[C@]2(C)CCCN2C(=O)[C@H](Cc2ccc(O)cc2)NC(=O)[C@H]([C@@H](C)O)NC(=O)N2C[C@@H](F)C[C@H]2C(=O)[C@H](Cc2c[nH]c3ccc(F)cc23)NC(=O)[C@H](Cc2c[nH]c3ccc(F)cc23)NC(=O)[C@@H](C)NC(=O)[C@H](C)NC1=O)C(=O)O [Compound 135]	0.1 to 100	0.11 to 100
CCCCCCCCCCCCCCCC(=O)N[C@@H](CCC(=O)NCCOCCOCC(=O)NCCOCCOCC(=O)NCCCC[C@H](NC(C)=O)C(=O)NCCOCCOCCOCCOCCOCCOCCOCCOCCOCCOCCOCCOCCC(=O)N[C@@H]1CSCc2cccc(c2)CSC[C@@H](C(N)=O)NC(=O)[C@]2(C)CCCN2C(=O)[C@H](Cc2ccc(O)cc2)NC(=O)[C@H]([C@@H](C)O)NC(=O)N2C[C@@H](F)C[C@H]2C(=O)[C@H](Cc2c[nH]c3ccc(F)cc23)NC(=O)[C@H](Cc2c[nH]c3ccc(F)cc23)NC(=O)[C@@H](C)NC(=O)[C@H](C)NC1=O)C(=O)O [Compound 136]	0.1 to 100	0.11 to 100
COc1ccc(C[C@@H]2NC(=O)[C@H](Cc3cnc[nH]3)NC(=O)[C@H](CC(=O)O)NC(=O)[C@H](Cc3c[nH]c4ccc(F)cc34)NC(=O)[C@H](Cc3c[nH]c4ccc(F)cc34)NC(=O)[C@@H](C)NC(=O)CCc3cn(nn3)-c3ccc(cc3)C[C@@H](C(N)=O)NC(=O)[C@]3(C)CCCN3C2=O)cc1 [Compound 416]	0.1 to 100	0.11 to 100
COc1ccc(C[C@@H]2NC(=O)[C@H](Cc3cnc[nH]3)NC(=O)[C@H](CC(=O)O)NC(=O)[C@H](Cc3c[nH]c4ccc(F)cc34)NC(=O)[C@H](Cc3c[nH]c4ccc(F)cc34)NC(=O)[C@@H](C)NC(=O)CCCC(=O)NCc3ccc(cc3)C[C@@H](C(N)=O)NC(=O)[C@]3(C)CCCN3C2=O)cc1 [Compound 417] ([dA][Trp(5-F)][Trp(5-F)]DHY(Me)[αMeP][Phe(4-CH2NH2)]-NH2; linker N-8 via Glutaryl)	100 to 500	0.11 to 100
COc1ccc(C[C@@H]2NC(=O)[C@H](Cc3cnc[nH]3)NC(=O)[C@H](CC(=O)O)NC(=O)[C@H](Cc3c[nH]c4ccc(F)cc34)NC(=O)[C@H](Cc3c[nH]c4ccc(F)cc34)NC(=O)[C@@H](C)NC(=O)CCCCC(=O)NCc3ccc(cc3)C[C@@H](C(N)=O)NC(=O)[C@]3(C)CCCN3C2=O)cc1 [Compound 419] ([dA][Trp(5-F)][Trp(5-F)]DHY(Me)[αMeP][Phe(4-CH2NH2)]-NH2; linker N-8 via Adipoyl)	500 to 5000	100 to 1000
COc1ccc(C[C@@H]2NC(=O)[C@H](Cc3cnc[nH]3)NC(=O)[C@H](CC(=O)O)NC(=O)[C@H](Cc3c[nH]c4ccc(F)cc34)NC(=O)[C@H](Cc3c[nH]c4ccc(F)cc34)NC(=O)[C@@H](C)NC(=O)[C@H](CNC(=O)COCCN)NC(=O)CCSCc3cc(F)cc(c3)CSCCNC(=O)[C@]3(C)CCCN3C2=O)cc1 [Compound 423] (cyclo(DHY(Me)[αMeP][X3][Dap](AEA)[dA][Trp(5-F)][Trp(5-F)]))	0.1 to 100	0.11 to 100
NC(=O)[C@@H]1Cc2ccc(cc2)CNC(=O)CCCC(=O)NCC(=O)N[C@@H](Cc2c[nH]c3ccc(F)cc23)C(=O)N[C@@H](Cc2c[nH]c3ccc(F)cc23)C(=O)N[C@@H](CC(=O)O)C(=O)N[C@@H](Cc2cnc[nH]2)C(=O)N[C@@H](Cc2ccc(O)cc2)C(=O)N1 [Compound 437] (G[Trp(5-F)][Trp(5-F)]DHY[Phe(4-CH2NH2)]-NH2; linker N-7 via Glutaryl)	100 to 500	0.11 to 100
COc1ccc(C[C@@H]2NC(=O)[C@H](Cc3cnc[nH]3)NC(=O)[C@H](CC(=O)O)NC(=O)[C@H](Cc3c[nH]c4ccc(F)cc34)NC(=O)[C@H](Cc3c[nH]c4ccc(F)cc34)NC(=O)[C@@H](C)NC(=O)CCCCCC(=O)NCc3ccc(cc3)C[C@@H](C(N)=O)NC(=O)[C@]3(C)CCCN3C2=O)cc1 [Compound 440] ([dA][Trp(5-F)][Trp(5-F)]DHY(Me)[αMeP][Phe(4-CH2NH2)]-NH2; linker N-8 via Heptanedioyl)	100 to 500	100 to 1000

The remaining lines, values ahead:

IC50 (PCSK9 [1]) [nM]	IC50 (PCSK9 [2]) [nM]	Compound
500 to 5000	21000 to 50000	COc1ccc(C[C@@H]2NC(=O)[C@H]([C@@H](C)O)NC(=O)[C@@H]3C[C@H](F)CN3C(=O)[C@H](Cc3c[nH]c4ccc(F)cc34)NC(=O)[C@H](Cc3c[nH]c4ccc(F)cc34)NC(=O)[C@@H](C)NC(=O)[C@H](CCCCN)NC(=O)[C@@H](NC(C)=O)CCC/C=C\Cc3ccc(cc3)C[C@@H](C(N)=O)NC(=O)[C@]3(C)CCCN3C2=O)cc1 [Compound 137]
500 to 5000	100 to 1000	COc1ccc(C[C@@H]2NC(=O)[C@H]([C@@H](C)O)NC(=O)[C@@H]3C[C@H](F)CN3C(=O)[C@H](Cc3c[nH]c4ccc(F)cc34)NC(=O)[C@H](Cc3c[nH]c4ccc(F)cc34)NC(=O)[C@@H](C)NC(=O)[C@H](CCCCN)NC(=O)[C@@H](NC(C)=O)CC/C=C/Cc3ccc(cc3)C[C@@H](C(N)=O)NC(=O)[C@]3(C)CCCN3C2=O)cc1 [Compound 138] (Ac-[Hag]K[dA][Trp(5-F)][Trp(5-F)][Pro(cis-4-F)]TY(Me)[αMeP][X29]-NH2; staple (E) 1-10)
500 to 5000	1000 to 12100	C[C@@]12CCCN1C(=O)[C@H](Cc1ccc(O)cc1)NC(=O)N[C@H]1CCCc3ccc(cc31)C(=O)[C@H](Cc1c[nH]c3ccc(F)cc13)NC(=O)[C@H](Cc1c[nH]c3ccc(F)cc13)NC(=O)CNC(=O)[C@H](CCCCN)NC(=O)CCSCc1cccc(c1)CSC[C@@H](C(N)=O)NC2=O [Compound 139]
100 to 500	0.11 to 100	C[C@@]12CCCN1C(=O)[C@H](Cc1ccc(O)cc1)NC(=O)N[C@@H]1CCCc3ccc(cc31)C(=O)[C@H](Cc1c[nH]c3ccc(F)cc13)NC(=O)[C@H](Cc1c[nH]c3ccc(F)cc13)NC(=O)CNC(=O)[C@H](CCCCN)NC(=O)CCSCc1cccc(c1)CSC[C@@H](C(N)=O)NC2=O [Compound 140]
500 to 5000	100 to 1000	COc1ccc(C[C@@H]2NC(=O)[C@H]([C@@H](C)O)NC(=O)[C@@H]3C[C@H](F)CN3C(=O)[C@H](Cc3c[nH]c4ccc(F)cc34)NC(=O)[C@H](Cc3c[nH]c4ccc(F)cc34)NC(=O)[C@@H](C)NC(=O)[C@H](CCCCN)NC(=O)[C@@H](NC(C)=O)CCCCCc3ccc(cc3)C[C@@H](C(N)=O)NC(=O)[C@]3(C)CCCN3C2=O)cc1 [Compound 141]
100 to 500	100 to 1000	CC(=O)N[C@@H]1CCC/C=C/CO[C@H]2C[C@@H](C(N)=O)N(C2)C(=O)[C@H](Cc2ccc(O)cc2)NC(=O)[C@H](Cc2cnc[nH]2)NC(=O)[C@H](CC(=O)O)NC(=O)[C@H](Cc2c[nH]c3ccc(F)cc23)NC(=O)[C@H](Cc2c[nH]c3ccc(F)cc23)NC(=O)CNC1=O [Compound 420]
100 to 500	0.11 to 100	CC(=O)N[C@@H]1CCCC/C=C\CO[C@H]2C[C@@H](C(N)=O)N(C2)C(=O)[C@H](Cc2ccc(O)cc2)NC(=O)[C@H](Cc2cnc[nH]2)NC(=O)[C@H](CC(=O)O)NC(=O)[C@H](Cc2c[nH]c3ccc(F)cc23)NC(=O)[C@H](Cc2c[nH]c3ccc(F)cc23)NC(=O)CNC1=O [Compound 422]
